What was measured:
Format in all cases: cell-based, mouse
[1] = tested on: de novo telomere addition on chr4 in SL13 cells; assay: ADDIT assay (Addition of de novo initiated telomeres): modified STELA PCR and PacBio sequencing
From the text: To examine potential mammalian genes that regulate telomere length, an assay was developed that allows visualization of telomere addition in vivo, referred here as ADDIT (Addition of de novo initiated telomeres). In a chromosomally stable CASTEiJ mouse fibroblast cell line, chromosome 4 (chr4) was modified to generate an internal 480 bp telomere ‘seed’ sequence followed by a unique I-Sce1 endonuclease cut site (FIG. 1A). The length of seed sequence was based on an early study showing that 400 bp of telomere repeats can act as functional telomeres. Using Southern blot analysis, two independent HYG-positive clones were identified, clone 1L and 1M, with a single chr4 allele correctly modified (data not shown).
To better visualize the telomere addition on the I-Sce1 cut telomere seed, the single telomere length analysis (STELA) (Baird et al., 2004, Hum Mol Genet 13, 1515-1524), a PCR-based approach that can measure telomere lengths from individual chromosome ends was modified. The STELA assay employs annealing and ligation of a linker, ‘telorette’, with TTAGGG and a unique 20-nucleotide sequence to the G-rich 3′ telomere overhang followed by PCR of the telomere from a ‘teltail’ primer and primer in the HYG sequence on the engineered chromosome (FIG. 2). The PCR product lengths will be proportional to the telomere lengths at the cleaved chr4 allele. As a control, to amplify the un-extended cut chromosome in vitro, a different linker, ‘IScerette’ was designed, which has a 4-nt homology to the 4-nt 3′ overhang created by the I-Sce1 endonuclease at the cleavage site (FIG. 2). […] This in vitro IScerette PCR product serves as a marker for the base line length of the cut, unextended telomere seed sequence.
To further verify the longer STELA PCR products represent de novo telomere addition, the PCR products were sequenced with Pacific Biosciences (PACBIO®) next generation sequencing technology. The PACBIO® platform produces longer reads and is less GC bias compared to other next generation sequencing platforms. While errors were present in the sequence as expected, the telomere repeats were easily recognizable. All of the reads from the PACBIO® were filtered and only those that had unique HYG sequence followed by telomere sequence and the ‘teltail’ primer sequence were examined. This assures that only full length of STELA PCR products were analyzed. The reads were then aligned at the junction between the HYG sequence and the telomere repeats. Wild-type TTAGGG repeats were colored orange and variant telomere repeats were colored in darker orange (FIG. 3A). Some of these variants arose due to errors in sequencing. An error rate similar to the published error rate of PACBIO® sequencing, 10-15% was observed. The errors were uniformly distributed over the reference sequence, dominated by point insertions and deletions, as expected for PACBIO® sequencing. There were three regions of divergent sequence in the original construct that are evident as darker orange stripes in the aligned reads (see for reference, in vitro IScelrette). These are small variation in TTAGGG sequence in the original SL13 clone and serve as useful internal reference points.
The original STELA protocol used for human cells (Baird et al., 2004, Hum Mol Genet 13, 1515-1524) was modified to measure telomere lengths on the de novo end of chr4 in SL13 cells. Briefly, genomic DNA was extracted using Puregene Core Kit A ^TM (Qiagen). 4 μg of genomic DNA was digested with SphI (NEB) and later diluted to 10 ng/μl in water. For the in vitro IScerette sample, genomic DNA was digested with SphI and I-SceI (NEB) prior to ligation. The ligation was carried out at 35° C. for at least 12 hrs in a volume of 10 μl containing 10 ng of digested genomic DNA, 0.9 μM of telorette linkers (mixture of telorette 1 to 6) or IScerette linker and 0.5 U of T4 DNA ligase (NEB) in 1× T4 ligation buffer. […]

[2] = tested on: SL13 cells; assay: Cell cycle profile by propidium iodide staining and flow cytometry; conditions: 200 ng/ml colcemid or 2.5 mM thymidine, 24 hrs
Protocol: SL13 cells were grown in DMEM (Gibco) supplemented with 1% Penicillin/Streptomycin/Glutamine and 10% Tet system approved FBS (Clontech, #631107). Final concentration of 2 μg/ml of doxycycline was added in the media to induce I-Sce1 expression. Typically cells were collected post 48 hours of doxcycline treatment. To arrest cells in different cell cycle phases, cells were treated with either final concentration of 200 ng/ml colcemid (Gibco KaryoMAX Colcemid Solution, #15212-012) or 2.5 mM Thymidine (Sigma, #T-1895).
Cell cycle phase was accessed by DNA content using propidium iodide (PI) staining and flow cytometry analysis. Briefly, cell pellets were washed with 1× PBS at 500× g for 5 minutes and resuspended in 500 μl of 1× PBS. 4.5 ml of ice cold 70% ethanol was added drop by drop, and incubated overnight at 4° C. Samples were washed with 5 ml 1× PBS and incubated with 500 μl of PI-Triton resuspension buffer at room temperature for ≥30 minutes protected from light. PI-Triton resuspension buffer was made of 0.1% Triton™ X-100, 200 μg/ml RNase A, 20 μg/ml PI (Invitrogen, #P3566) in 1× PBS. PI-stained samples were transferred to strainer tubes (BD Falcon) and run on FACSCalibur™ flow cytometry (BD Biosciences). Cell cycle profiles were analyzed utilizing the Dean-Jet-Fox™ model in FlowJo™ software (FlowJo™).

[3] = tested on: HA-tagged I-Sce1; assay: Quantitative RT-PCR of HA-tagged I-Sce1 expression; conditions: 200 ng/ml colcemid or 2.5 mM thymidine, 48 hrs; normalized to HPRT
Protocol: To measure HA-tagged I-Sce1 expression levels, quantitative RT-PCR was performed as described in 2.4.5. Primers used are the following: HA-ISce1-FOR, 5′-[…]-3′ (SEQ ID NO: 143); ISce1-REV2, 5′-[…]-3′ (SEQ ID NO: 144); HPRT_F, 5′-[…]-3′ (SEQ ID NO: 145); HPRT_R, 5′-[…]-3′ (SEQ ID NO: 146).

[4] = tested on: SL13 cells; assay: Southern blot of genomic DNA for de novo telomere addition smear in arrested cells; conditions: cells arrested in G1 phase versus control cells and G2/M cells
From the text: To examine the in vivo chr4 cleavage and de novo telomere addition, genomic DNA extracted from SL13 cells arrested at different cell phases and treated with doxycycline for various time points were digested with Ncol restriction enzyme (NEB) and further analyzed by Southern blot as described previously in Example 1 with a random primed α-32P-labeled HYG probe.

Compound: CN[C@H]1CCc2cc(OC)c(OC)c(OC)c2-c2ccc(OC)c(=O)cc21 [colcemid]
- PacBio reads with de novo telomere addition in cells held in G2/M phase ([1]; 200 ng/ml colcemid, 48 hrs): significant percentage of PacBio® reads with de novo telomere addition
- cell cycle phase of arrest [2]: arrested in G2/M phase
- I-Sce1 expression in cells arrested at different phases [3]: no significant difference

Compound: CN1CC[C@H](c2c(O)cc(O)c3c(=O)cc(-c4ccccc4Cl)oc23)[C@H](O)C1 [flavopiridol]
- elongation beyond the chr4 I-Sce1-induced cut base line ([1]; Southern blot analysis of STELA PCR products, 400 nM flavopiridol): minimal elongation

Compound: Cc1cn([C@H]2C[C@H](O)[C@@H](CO)O2)c(=O)[nH]c1=O [thymidine]
- cell cycle phase of arrest [2]: G1/early S phase
- 'smear' representative of de novo telomere addition [4]: even less ‘smear’
- I-Sce1 expression in cells arrested at different phases [3]: no significant difference
